Laboratory results taken from patent US8309536B2, “Implant improving local bone formation” (priority 2005, dated 2012).
Where “and” joins values, the source holds several entries; their conditions need not be identical. Equal entries are not always repeated.

Tests used:
[1] = test system: soft tissue formation at implant site; settings: single application via a sponge to an implant site, rat; cited from earlier work
alveolar bone resorption = settings: local application following periodontal surgery in rats; cited from earlier work
regenerate bone / callus = settings: Smith et al 2003; net bone accumulation due to increased retention of callus; cited from earlier work
[2] = test system: canine ulnar intramedullary implant model; assay: Canine ulnar intramedullary implant model, single intravenous dose of ZA, porous tantalum rods implanted for 6 weeks; type: in vivo
Experimental: The hypothesis that bisphosphonates have a positive effect on net bone growth, particularly into porous implants, was first confirmed by conducting a canine ulnar intramedullary implant model in which porous tantalum rods were implanted for 6 weeks. (Bobyn J D, Tanzer M, Harvey EJ, Krygier JJ, Little DG. J Bone Joint Surg (Br), 2005) Immediately after surgery, seven test animals with 14 ulnar implants were administered a single intravenous dose of 0.1 mg/kg ZA (Novartis Pharma A G, Basel, Switzerland). Because of the systemic exposure of test animals to ZA it was necessary to utilize external control data from a prior experiment (Tanzer M, Kantor S, Bobyn J D. J Arthrop 19:195-199, 2002) for comparisons of bone ingrowth. The mean extent of bone ingrowth was 6.6% for the control implants and 12.2% for the ZA-treated implants, a relative difference of 85% that was statistically significant.

distraction osteogenesis = settings: cited from earlier work
[3] = test system: canine ulnar intramedullary implant model; assay: Canine ulnar intramedullary implant model, HA coated porous tantalum implants dosed with ZA (local delivery), 12 weeks, quantitative histology; type: in vivo, dog
Description: In Vivo Studies. The previously described canine ulnar intramedullary implant model was utilized (study approved by institutional review board) (Bobyn J D, Tanzer M, Harvey EJ, Krygier JJ, Little DG. J Bone Joint Surg (Br), In press, 2005). The surgical procedure involved anesthetizing the dog with a general anesthesia and under sterile conditions exposing the proximal ulna. A two-centimeter incision was made over the olecranon process and the triceps tendon was split by sharp dissection down to bone. Under fluoroscopic guidance, a 5.0 mm drill was oriented along the long axis of the ulna and in line with the intramedullary canal. A 5.5 cm long hole was drilled under fluoroscopy to ensure the proper orientation of the drill hole and to prevent cortical penetration. The porous implant was then tapped down the intramedullary canal of the ulna with a punch and mallet. The implant was slightly countersunk to avoid postoperative irritation of the overlying triceps tendon. The wound was irrigated and closed in a standard fashion. The procedure was repeated on the contralateral side. Positioning of the implants inevitably varied somewhat in terms of depth of insertion within the canal and spatial orientation within the canal. […] Each dog received either two control HA coated implants without ZA or two HA coated implants dosed with 0.05 mg ZA. Five control dogs and four with ZA-dosed implants were studied at 12 weeks. This protocol was utilized instead of one with a control and a ZA-dosed implant in each animal because it avoided the possibility of systemic absorption of ZA from one side and influence of a control implant on the other side.
Histological examination. After sacrifice, the ulnae were harvested, stripped of soft tissue, radiographed and processed for undecalcified hard-section histology (FIG. 6). This involved dehydration in ascending solutions of ethanol, defatting in ether and acetone, and embedding in methylmethacrylate. Each implant was cut transversely into 6 or 7 sections at 7-8 mm intervals. The sections were radiographed and polished, sputter coated with gold-palladium, and imaged with backscattered scanning electron microscopy. For each section, computerized image analysis based on grey level discrimination was used to identify bone and implant and to generate quantitative information on the extent of bone ingrowth, defined as the percentage of the available porosity that was filled with new bone. Also tabulated in each section was the number and size of the individual islands of bone within the implant pores. In sections cut through the ulnar diaphysis, where delineation of the endosteal cortex was clearly evident, the total area of peri-implant bone contained within the intramedullary canal was also tabulated. In these calculations the implant area (and bone within) was not included. For each section, the peri-implant bone was expressed as a percentage of the total peri-implant area within the intramedullary canal (not including the implant).
Statistical analysis. The quantitative histological data were statistically analyzed using multiple two-level hierarchical models. At the first level of the model, the set of results from the limbs of each dog was assumed to follow a normal distribution with dog-specific means and a global variance parameter. At the second level of the model, the means from each dog in each group (control, ZA-dosed) from the first level followed a second normal distribution, with the mean representing the overall mean for the treatment or control groups and the variance representing the variability within the group. A similar statistical model was also run where the results for each dog were allowed to vary with the distance (section level) along the ulna. […] The mean values and differences between means for control and ZA-dosed implants were estimated with 95% confidence intervals (CI).

[4] = ZA elution from porous tantalum implants in saline, assayed by UV spectrophotometry; type: physicochemical; settings: for percent of the ZA released: HA-coated implant dosed with 0.05 mg ZA
Description: Assay of ZA Elution. Assays of ZA in solution were achieved using UV spectrophotometry. Bisphosphonates on their own lack a detectable chromophore, making them difficult to assay by simple conventional analytical methods. However, the metal chelating properties of bisphosphonates are well known. When bisphosphonates complex with certain metal ions, a chromophore with suitable. UV activity for spectrophotometric analysis is created (Ostovic D, Stelmach C, Hulshizer B. Pharmaceutical Research. 10:470-472, 1993). The method for assaying ZA in aqueous-based solutions is based on the formation of a ZA complex with iron (III) ions (Kuljanin J, Jankovic I, Nedeljkovic J, Prstojevic D, Marinkovic V. Journal of Pharmaceutical and Biomedical Analysis. 28:1215-1220, 2002). Of the three components in the prescription drug Zometa™ (ZA, mannitol, and sodium citrate), only ZA forms a complex with iron (III) ions. A standard solution of iron (III) chloride in perchloric acid is added to known concentrations of Zometa™ and the absorbance is measured at 290 nm to create a calibration curve. A highly acidic medium is needed to prevent the hydrolysis of the iron (III) ions. Aliquots of the soak solution from the Zometa™-coated implants can be analyzed by adding the standard iron (III) chloride solution to the soak solution and measuring the absorbance at 290 nm. By measuring the absorbance, the concentration of the sample can be calculated and thus the mass of the drug released from the implant for a given time period can be determined.
Four porous tantalum implants with and without HA coating were deposited with 0.05 mg of ZA as described. For each implant group, elution characteristics were ascertained by immersing each implant in a test tube containing 5 ml of 0.9% saline at […]. At mutiple test intervals (1 min, 3 min, 5 min, 10 min, 15 min, 30 min, 1 hr, 6 hrs, 12 hrs, 1 day, 3 days, 7 days, 14 days, 21 days, 42 days, 84 days, and 98 days), the implant was removed from the test tube, the saline was thoroughly mixed, and aliquots were removed for ZA assays using UV spectrophotometry. After each time interval for each implant, the implant was placed in a test tube with fresh replacement of 5 ml of saline. This elution model avoided build up of boundary layers and more closely resembled a dynamic system. The 84-day assay time corresponded to the 12 week length of the in vivo implant studies. Assays ceased once the total amount of ZA was released.

[5] = test system: canine ulnar intramedullary implant model; assay: Canine ulnar intramedullary implant model, HA coated porous tantalum implants dosed with ZA (local delivery), 12 weeks, quantitative histology; type: in vivo, dog; settings: total ZA doses of 0.2 mg and 0.4 mg, relative to 0.05 mg
bone resorption = settings: cited from earlier work; for potency at inhibiting bone resorption relative to second generation bisphosphonates (in words): third generation bisphosphonates which contain a tertiary nitrogen
[6] = test system: human (MG-63) osteoblastic cells; settings: Peter et al 2004; cited from earlier work
[7] = test system: murine (MC3T3) osteoblastic cells; settings: Peter et al 2004; cited from earlier work
[8] = test system: knee prostheses migration; settings: early postoperative oral regimen, radiostereometry; cited from earlier work
[9] = individual ZA dogs 1-4, 0.05 mg ZA, 12 weeks

For NCCCC(O)(P(=O)(O)O)P(=O)(O)O [alendronate], the “effect on soft tissue forming from resorptive remodeling due to repetitive implant motion” value [1] is listed as “reduces the amount of soft tissue” and the “effect on alveolar bone resorption” value (alveolar bone resorption) is listed as “reduce alveolar bone resorption”.
For O=P(O)(O)C(O)(Cn1ccnc1)P(=O)(O)O [ZA, zoledronic acid], the bone formation rate (regenerate bone / callus) is given as “reduced”, the “average bone island size larger in the ZA-treated group” value ([2]; 0.1 mg/kg ZA intravenous) is given as 69% and the “relative difference in bone ingrowth, ZA-treated vs external control implants” value ([2]; 0.1 mg/kg ZA intravenous, statistically significant) is given as 85%. The “mean extent of bone ingrowth” value ([2]; single intravenous dose of 0.1 mg/kg ZA, 14 ulnar implants, own earlier published study) was 12.2%, the “effect on osteopenia and regenerate bone” value (distraction osteogenesis; one or two doses of ZA) was “abolished osteopenia and increased regenerate volume, mineralization and strength” and the “more net bone growth into ZA-dosed implants compared with controls, relative” value ([3]; 0.05 mg ZA, 12 weeks) was 58%. The “peri-implant bone around ZA-dosed implants relative to controls” value ([3]; 0.05 mg ZA, 12 weeks) was 2.3 times, the “peri-implant bone on contact radiographs, ZA-dosed vs control implants (in words)” value ([3]; 0.05 mg ZA, 12 weeks) was “almost always more dense and/or abundant” and the “relative difference in the size of the bone islands, ZA-dosed vs control” value ([3]; 0.05 mg ZA, 12 weeks) was 71%. The “Bone Island Size, overall Mean (95% CI)” value ([3]; 0.05 mg ZA, 12 weeks, 54 sections, 8 implants) was 0.023 (0.016 to 0.031) mm^2, the “bone islands larger in the ZA-dosed implants than in controls, difference” value ([3]; 0.05 mg ZA, 12 weeks, 95% CI 0.001 to 0.017) was 0.009 mm^2 and the “difference of the means of peri-implant bone filling, ZA-dosed vs control” value ([3]; 0.05 mg ZA, 12 weeks, 95% CI 3.3 to 33.7) was 18.4%. The “difference in mean extent of bone ingrowth, ZA-dosed vs control” value ([3]; 0.05 mg ZA, 12 weeks, 95% CI 3.5 to 11.1) was 7.3%, the “histologic evidence of cellular toxicity” value ([3]; 0.05 mg dose) was “without any histologic evidence of cellular toxicity” and the “Peri-implant bone relative to intramedullary canal size, overall Mean (95% CI)” value ([3]; HA coated implants dosed with 0.05 mg ZA, 12 weeks, 24 diaphyseal sections, 8 implants) was 32.2 (21.7 to 43.0) %. The “Mean extent of bone ingrowth, overall Mean (95% CI)” value ([3]; HA coated implants dosed with 0.05 mg ZA, 12 weeks, 54 sections, 8 implants) was 19.8 (16.9 to 22.6) %, the “# Bone Islands, by dog” value [3, 9] was 109 and 155 and 206 and 131 and the “Bone Island Size, by dog” value [3, 9] was 0.033 mm^2 and 0.016 mm^2 (2×) and 0.028 mm^2. For the same molecule, the “Mean extent of bone ingrowth, by dog” value ([3]; individual ZA dogs 1-4, HA coated implants dosed with 0.05 mg ZA, 12 weeks) was 16.0% and 20.3% (2×) and 22.6%, the “Peri-implant bone relative to intramedullary canal size, by dog” value ([3]; individual ZA dogs 1-4, HA coated implants dosed with 0.05 mg ZA, 12 weeks, diaphyseal sections) was 19.8% and 38.5% and 30.4% and 40.0% and the “bone formation on increasing the dosage of ZA” value ([3]; total ZA doses of 0.2 mg and 0.4 mg, relative to 0.05 mg) was “more bone formation around and within the implant”. For the same molecule, the “complications or systemic illness related to the ZA administration” value ([3]; two HA coated implants dosed with 0.05 mg ZA per dog, 12 weeks) was “No dogs had any complications or systemic illness”, the “percent of the ZA released” value ([4]; 0.9% saline, after soaking for 6 weeks) was about 95% and the “percent of the ZA released” value ([4]; 0.9% saline, within 1 hour) was “about 65%”. The “release of zoledronic acid in saline (in words, FIG. 7)” value ([4]; implants without HA coating compared to those with HA coating, 0.05 mg) was “rapid and complete release”, the “time within which all of the ZA was released” value ([4]; non-HA coated porous tantalum implant dosed with 0.05 mg ZA, 0.9% saline) was at most 1 h and the “kind of the additional bone formed at higher doses” value [5] was “woven bone”. For the same molecule, the “potency relative to alendronate” value (bone resorption; Green 2001, Li and Davis 2003) was 250 times, the “potency relative to pamidronate” value (bone resorption; Green 2001, Li and Davis 2003) was 100 times and the “potency at inhibiting bone resorption relative to second generation bisphosphonates (in words)” value (bone resorption) was “even more potent”. For the same molecule, the “concentration below which ZA can be considered safe for cellular activity” value [6] was “below 10 μM” and the “concentration below which ZA can be considered safe for cellular activity” value [7] was “below 10 μM”.
In the case of O=P(O)(O)C(O)(Cc1cccnc1)P(=O)(O)O [risendronate], the “potency at inhibiting bone resorption relative to second generation bisphosphonates (in words)” value (bone resorption) is listed as “even more potent”.
For CCCCCN(C)CCC(O)(P(=O)(O)O)P(=O)(O)O [ibandronate], the “potency at inhibiting bone resorption relative to second generation bisphosphonates (in words)” value (bone resorption) is listed as “even more potent”.
For NCCC(O)(P(=O)(O)O)P(=O)(O)O [pamidronate], the “effect on disuse osteopenia and regenerate bone” value (distraction osteogenesis; single postoperative intravenous dose of pamidronate (3 mg/kg)) is listed as “decreased the disuse osteopenia normally associated with lengthening and increased the amount and density of the regenerate bone”.
For O=P(O)(O)C(Cl)(Cl)P(=O)(O)O [clodronate], the “effect on migration of knee prostheses” value [8] is given as “reduced migration of knee prostheses”.
